In patent US11654136B2, “Phosphoinositide 3-kinase inhibitor with a zinc binding moiety” (Curis, Inc., priority 2011, dated 2023):
pIC50: −log10 of the molar value.

Columns and labels:
[1] = test system: HDACs (HeLa cell nuclear extracts); experiment: HDAC activity assay (Biomol Color de Lys); assay type: biochemical
Method: HDAC inhibitory activity was assessed using the Biomol Color de Lys system (AK-500, Biomol, Plymouth Meeting, Pa.). Briefly, HeLa cell nuclear extracts were used as a source of HDACs. Different concentrations of test compounds were serially diluted in dimethylsulfoxide (DMSO) and added to HeLa cell nuclear extracts in the presence of a colorimetric artificial substrate. Final assay condition contained 50 mM Tris/C1, pH 8.0, 137 mM NaCl, 2.7 mM KCl and 1 mM MgCl2. Reactions were carried in room temperature (25° C.) for 1 hour before addition of developer for termination. Relative enzyme activity was measured in the WALLAC Victor II 1420 microplate reader as fluorescence intensity (excitation: 350-380 nm; emission: 440-460 nm). Data were analyzed using GraphPad Prism (v4.0a) with a sigmoidal dose response curve fitting for IC50 calculation.

[2] = Daudi xenograft tumor model; assay type: in vivo; settings: Scid, mouse, in vivo; oral; Daudi model; read-out: maximum tolerated dose (MTD)
Method: (§1) SU-DHL4 (diffuse large B-cell lymphoma cell line), H2122 (human NSCLC cell line), Daudi (non-Hodgkin's lymphoma cell line), and OPM2 (multiple myeloma tumor cell line) cells were implanted into either nude or Scid (severe […] immune-deficient) mice. […]. […] The control groups were treated with vehicle using the same dosing schedule as the corresponding active group.
(§2) In another study, the Daudi tumor group was dosed at 50 mg/Kg twice a day for five days per week. […] The SU-DHL4 tumor group was dosed at 100 mg/Kg orally or 50 mg/Kg intravenously.
(§3) Tumors were measured during the study period with an electronic caliper, and body weights were measured twice a week. The following formula was used to calculate the tumor volume: […] Percentage of tumor volume change was used to describe compound activity over the treatment period.

[3] = test system: Daudi (non-Hodgkin's lymphoma cell line) xenograft tumors; experiment: Daudi xenograft tumor model; assay type: in vivo
Method: as §1, §2, §3

T and B lymphocytes = experiment: Effect on circulating and lymphoid organ lymphocytes; assay type: in vivo, CD1 wild type mice; settings: 100 mg/kg orally for five consecutive days
Method: Another 5 mice were treated with vehicle. Blood was collected at various time points (including pre-dosing, during dosing and post-dosing) from the mandibular vein. Blood was analyzed with a flow cytometer for T and B cell quantification.
The animals were sacrificed, and the lymphoid organs were collected. Cells were physically dissociated from the tissues and analyzed with a flow cytometer. Anti-CD3 and -CD19 antibodies were used to stain T and B cells, respectively.

[4] = Pharmacokinetic study in rats; assay type: in vivo; settings: rat, single oral gavage 20 mg/kg, male Sprague-Dawley rats, plasma
Method: The resulting clear yellow solution was stored at room temperature until picked up for dosing.
Three male Sprague-Dawley rats from Charles River Laboratories were used in this study. High fat diet (VHFD, D12492i) from Research Diets Inc. were provided ad libitum throughout the in-life portion of the study.
Blood samples (approximate volume 150 μL) were collected tail vein at 0.25, 0.5, 1, 3, 6, and 24 hours postdose. Blood samples were placed into tubes containing sodium heparin and centrifuged at 8000 rpm for 6 minutes at 4° C. to separate plasma from the samples. Following centrifugation, the resulting plasma was transferred to clean tubes and stored frozen at −80° C. pending bioanalysis.
The pharmacokinetic parameters were determined from mean concentration-time data in the test subjects. A compartmental modeling of WINNONILIN® Professional 5.2. was used to calculate parameters. Any concentrations that were below the limit of quantitation (lower limit of quantitation=1 ng/mL) were omitted from the calculation of parameters in individual animals.

[5] = test system: H2122 (human NSCLC cell line) xenograft tumors; experiment: H2122 xenograft tumor model; assay type: in vivo, nude mice
Method: as §1, §2, §3

[6] = test system: marrow lymphocyte progenitor cells; experiment: Effect on hematopoietic cells in bone marrow; assay type: in vivo, mice; settings: 100 mg/kg orally for five consecutive days
Excerpt: Bone marrow was also removed from the mice sacrificed in Example 12. Bone marrow content were collected from the mice long bones and analyzed with flow cytometer. Various markers for progenitor or mature lymphocytes were used.

[7] = Pharmacokinetics in nude mice bearing H2122 tumors; assay type: in vivo; settings: PO 50 mg/kg; for Cmax / bioavailability: mouse
Method: Nude mice bearing H2122 (human non-small cell lung cancer cell line) xenograft tumors were used for pharmacokinetics studies. […] At various time points following compound administration, three mice per time point were euthanized with CO2, and blood and tumor tissues were collected. Blood was collected into tubes containing sodium heparin. The plasma was separated via centrifugation. Plasma and tissues were stored at −80° C. for later analysis. A PE Sciex API-3000 LC-MS/MS system (Applied Biosystems, Inc., Foster City, Calif.) was used to analyze compound concentrations in plasma and tumor tissues.

glioblastoma xenografts = settings: oral dosage; Folkes et al. 2008; cited from earlier work
[8] = Plasma, H2122 tumor-bearing nude mice

For `COc1ccc(-c2nc(N3CCOCC3)c3sc(CN(C)c4ncc(C(=O)NO)cn4)cc3n2)cn1` [Compound 1, N-hydroxy-2-(((2-(6-methoxypyridin-3-yl)-4-morpholinothieno[3,2-d]pyrimidin-6-yl)methyl)(methyl)amino)pyrimidine-5-carboxamide], the pIC50 [1] was > 7.00, the MTD [2] was 100 mg/kg and the Tumor growth ([3]; oral 50 mg/Kg twice a day, five days per week) was “efficacious”. For the same compound, the “Antitumor activity compared with GDC-0941, vorinostat and their combination” value ([3]; oral 100 mg/Kg, each treatment at its MTD) was “more efficacious than vorinostat, GDC-0941, or a combination of both”, the “Tumor growth versus dose” value ([3]; oral 25, 50 or 100 mg/Kg five day per week) was “inhibited Daudi tumor growth in a dose-dependent manner” and the “Blood levels of T and B lymphocytes” value (T and B lymphocytes; blood) was “significant reversible reduction in the blood levels of both T and B lymphocytes”. The “T and B lymphocyte levels in spleen and lymph nodes” value (T and B lymphocytes; spleen and lymph nodes) was “significant reduction in both T and B lymphocytes”, the AUC(0-inf) [4] was 164 ng·h/mL and the Cmax [4] was 39.5 ng/mL. The Tmax [4] was 6 min, the Half-life ([4]; read-out: half-life (T1/2) (converted)) was 11.7 h and the Body weight ([5]; oral 75 mg/Kg twice a day, H2122 tumor-bearing nude mice) was “body weight loss”. For the same compound, the Tumor growth ([5]; oral 75 mg/kg twice a day, then 50 mg/Kg twice a day from Day-11, five days per week) was “efficacious”, the “Marrow lymphocyte progenitor cells” value [6] was “induced a compensatory increase in marrow lymphocyte progenitor cells” and the “Distribution between plasma and tumor tissue” value [7] was “preferentially accumulates in tumor tissue”. For the same compound, the “Area under the Curve” value [7, 8] was 478 ng/mL * hr, the Half-life [7, 8] was 5.9 h and the “Area under the Curve” value ([7]; Tumor) was 2126 ng/mL * hr. For the same compound, the Half-life ([7]; Tumor) was 10.1 h, the Cmax ([7]; Tumor) was 154 ng/mL and the bioavailability ([7]; Tumor) was 14.8%. The Cmax [7, 8] was 186 ng/mL and the bioavailability [7, 8] was 7.8%.
In the case of `CS(=O)(=O)N1CCN(Cc2cc3nc(-c4cccc5[nH]ncc45)nc(N4CCOCC4)c3s2)CC1` [GDC-0941, reference compound], the Tumor suppression (glioblastoma xenografts) is given as “tumor suppression”.
